{"source": "patent US9895370B2", "about": "“Pharmaceutical composition for preventing or treating of cirrhosis of liver comprising G protein coupled receptor 119 ligand as an active ingredient” (DONGGUK UNIVERSITY INDUSTRY—ACADEMIC COOPERATION FOUNDATION, priority 2015, dated 2018)", "key": {"[1]": {"tested_on": "peptidyl prolyl isomerase (Pin1)", "experiment": "Pin1 expression in LX-2", "format": "cell-based, human", "details": "FIG. 5b", "experimental": "(§1) A human HSC line (LX-2, Milipore, U.S.A.) was plated in a 6-well plate, and grown to confluency in DMEM supplemented with 1% penicillin-streptomycin (Hyclone, U.S.A.) and 2% fetal bovine serum (Hyclone, U.S.A.) at 37° C. in a 5% CO2 incubator. For a further experiment, the confluent HSC line was incubated in an FBS-free medium, instead of the 2% FBS-added medium.\nAccording to existing reports, as a core factor participating in cell proliferation by PDGF, peptidyl prolyl isomerase (Pin1) is known. Therefore, Pin1 relevance with respect to the GPR119 ligand action was evaluated."}, "human HSC line LX-2": {"tested_on": "human HSC line LX-2", "experiment": "TGFβ1-inducible collagen I and TGFβ expression in LX-2", "format": "cell-based", "experimental": "as §1\nTotal RNA ([…]) extracted from cells using Trizol and a Maxime RT PreMix Kit (iNtRON Biotechnology, Gyeonggi-do, Korea) was used to obtain cDNA. For RT-PCR, a target gene was amplified by PCR using a Maxime™ PCR PreMix Kit according to the manufacturer's instructions, and subjected to electrophoresis in a 2% agrose gel, thereby identifying the amplified PCR product.\nMeanwhile, for real-time RT-qPCR, the synthesized cDNA was assessed in a CFX Connect™ Real-Time PCR Detection System (Bio-Rad Laboratories, CA, USA) instrument using a SYBR green dye (Bio-Rad). The CP value of the gene was calibrated with the CP value of S 18r gene. Also, through a melting curve analysis, specificity of the amplified PCR product was confirmed.\n(§2) Sodium dodecylsulfate-polyacrylamide gel electrophoresis (SDS-PAGE) was performed using a gel electrophoresis device (Mighty Small SE 250, Hoefer Scientific Instruments, San Francisco) according to the method established by the inventors. A lysed cell fraction was diluted with a sample dilution buffer [63 mM Tris (pH. 6.8), 10% glycerol, 2% SDS, 0.0013% bromophenol blue, 5% β-mercaptoethanol], and subjected to electrophoresis in an electrode buffer (15 g Tris, 72 g glycerin and 5 g SDS contained in an 1 L solution) using a 8-12% gel. After electrophoresis, the gel was transferred to a nitrocellulose membrane to transfer proteins using an electrophoresis device for transfer in a transfer buffer (25 mM Tris, 192 mM glycerin, 20% v/v methanol (pH. 8.3)] at 40 mA for 3 hours. The nitrocellulose membrane was reacted with first antibodies, reacted with horseradish peroxidase-conjugated goat anti-rabbit IgG and horseradish peroxidase-conjugated goat anti-mouse IgG as secondary antibodies for 1 hour, and visualized using an ECL chemiluminescence system (Amersham, Gaithesberg, Mass.).\nA critical cytokine having an influence on the induction of liver fibrosis, TGFβ1, is a potent fibrosis stimulation factor for HSCs. To examine the expression of a liver fibrosis-inducing factor which was increased when the human liver cell line LX-2, cultured by method D was treated with TGFβ1, changes in expression according to the treatment with GPR119 ligands (MBX-2982, GSK1292263) were assessed by the methods described in G and H, thereby observing the effect of the GPR119 ligands."}, "Smad3 and p300": {"tested_on": "Smad3 and p300", "experiment": "Smad3-p300 interaction, Smad3 acetylation and AMPK-p300 binding in LX-2 (immunoprecipitation)", "format": "cell-based, human", "experimental": "as §1\nTotal fraction protein was reacted with corresponding antibodies at 4° C. for 12 hours or more. An antigen-antibody conjugate was reacted with protein G-agarose at 4° C. for 2 hours to precipitate, and then reacted with 2× Laemmli buffer. The extracted protein was observed by an immunochemical method.\nAccording to existing reports, AMPK activation in HSCs inhibits the interaction between Smad3 and p300 and inhibits the expression of a liver fibrosis-inducing factor through elevation of proteasomal degradation of the transcriptional coactivator p300. Thus, the influence of the GPR119 ligand on the interaction between Smad2/Smad3 and p300 was examined.\nSubsequently, in the present invention, a mechanism for inhibiting the Smad-p300 interaction due to AMPK activation was investigated."}, "Smad2/Smad3": {"tested_on": "Smad2/Smad3", "experiment": "TGFβ1-elevated Smad2/Smad3 phosphorylation and nuclear translocation in LX-2", "format": "cell-based, human", "experimental": "as §1\nA whole cell lysate and a nuclear fraction were separated according to a conventional method. More specifically, the whole cell lysate was obtained by lysing cells washed with phosphate buffered saline (PBS) with a lysis buffer [10 mM Tris-HCl (pH 7.1), 100 mM NaCl, 1 mM EDTA, 10% glycerol, 0.5% Triton X-100, 0.5% Nonidet P-40, 1 mM dithiothreitol and 0.5 mM phenylmethylsulfonyl fluoride (PMSF)] at 4° C. for 30 minutes, and centrifuging the resulting solution at 14,000×g for 15 minutes to obtain a supernatant. To obtain the nuclear fraction, a low-osmotic pressure buffer containing 10 mM HEPES (pH 7.9), 10 mM KCl, 0.1 mM EDTA, 1 mM DTT and 0.5 mM PMSF was added and reacted at 4° C. for 10 minutes. Following addition of 10% Nonidet P-40 and vortexing for 10 seconds, the supernatant obtained by centrifugation at 13,000 rpm for 3 minutes was removed, and the remaining precipitate was washed three times with a low-osmotic pressure buffer. The precipitate was mixed with a high-osmotic pressure buffer [20 mM HEPES (pH 7.9), 400 mM NaCl, 1 mM EDTA, 1 mM DTT and 1 mM PMSF] and vortexed again at 4° C. for 10 minutes to induce a reaction for 20 minutes. Following centrifugation at 13,000 rpm for 10 minutes, a supernatant was obtained to be used as a nuclear fraction. A protein concentration was quantified using a protein quantify kit of PRO-MEASURE™ protein measurement solution (iNtRON Biotechnology, South Korea) according to the Bradford assay.\nSodium dodecylsulfate-polyacrylamide gel electrophoresis (SDS-PAGE) was performed using a gel electrophoresis device (Mighty Small SE 250, Hoefer Scientific Instruments, San Francisco) according to the method established by the inventors. […]"}, "HSC line LX-2": {"tested_on": "HSC line LX-2", "experiment": "PDGF-induced HSC proliferation in LX-2", "format": "cell-based, human", "details": "FIG. 5a", "experimental": "as §1"}, "[2]": {"tested_on": "mouse embryonic fibroblasts (MEFs)", "experiment": "collagen I and α-SMA protein expression in mouse embryonic fibroblasts (western blot)", "format": "cell-based", "details": "FIG. 2b", "experimental": "as §2"}, "[3]": {"details": "LX-2 treated with TGFβ1, FIGS. 2c, 2d"}}, "data": [{"smiles": "CCc1cnc(N2CCC(c3nc(COc4ccc(-n5cnnn5)cc4)cs3)CC2)nc1", "note": "[MBX-2982, 4-((4-(1H-tetrazol-1-yl)phenoxy)methyl)-2-(1-(5-ethylpyrimidin-2-yl)piperidin-4-yl)thiazole]", "values": [{"measurement": "Pin1 expression", "setting": "[1]", "value": "time-dependently reduced"}, {"measurement": "expression of TGFβ1-inducible liver fibrosis inducing factors (collagen I, TGFβ) with compound C / DN-AMPK", "setting": "human HSC line LX-2; AMPK inhibitor compound C treated, DN-AMPK transduced, FIG. 4c", "value": "inhibitory effect"}, {"measurement": "inhibitory effect on collagen I and TGFβ expression under overexpression of Pin1", "setting": "human HSC line LX-2; LX-2 transduced with Pin1 adenovirus, TGFβ1, FIG. 5c", "value": "reversed"}, {"measurement": "expression of TGFβ1-inducible TGFβ", "setting": "human HSC line LX-2; [3]", "value": "inhibited"}, {"measurement": "expression of TGFβ1-inducible collagen I", "setting": "human HSC line LX-2; [3]", "value": "inhibited"}, {"measurement": "Smad3 acetylation elevated by TGFβ1", "setting": "Smad3 and p300; LX-2, FIG. 4e", "value": "considerably inhibited"}, {"measurement": "interaction between Smad3 and p300 elevated by TGFβ1", "setting": "Smad3 and p300; LX-2, FIG. 4e", "value": "considerably inhibited"}, {"measurement": "binding of activated AMPK to p300", "setting": "Smad3 and p300; LX-2 treated with ligand alone, FIG. 4g", "value": "directly bound to p300"}, {"measurement": "nuclear translocation of Smad2/Smad3 elevated by TGFβ1", "setting": "Smad2/Smad3; LX-2, FIG. 2e", "value": "inhibited"}, {"measurement": "phosphorylation of Smad2/Smad3 elevated by TGFβ1", "setting": "Smad2/Smad3; LX-2, FIG. 2e", "value": "inhibited"}, {"measurement": "inhibitory action on phosphorylation of Smad3 activated by TGFβ1, under AMPK inhibition", "setting": "Smad2/Smad3; compound C / DN-AMPK, FIG. 4d", "value": "partially recovered by AMPK inhibition, but not completely offset"}, {"measurement": "HSC proliferation induced by PDGF", "setting": "HSC line LX-2", "value": "inhibited"}, {"measurement": "collagen I expression", "setting": "[2]", "value": "inhibited"}, {"measurement": "α-SMA expression", "setting": "[2]", "value": "inhibited"}]}]}
